# Assay results as given in US20240197733A1, “A GABA RECEPTOR MODULATOR FOR USE IN THE TREATMENT OF PAIN” (SANIONA A/S, priority 2021, published 2024).
# Columns and labels:
# Assay type in all cases: in vivo, Sprague-Dawley rats
# [1] = system: electrocutaneous stimulation-induced facial pain rodent model; assay: ES-induced facial pain model, mechanical allodynia (Von Frey filaments), acute treatment; details: 30 mg/kg po, acute, 2 and 4 hours post dosing; p<0.001, p<0.0001 vs vehicle
# Excerpt: (§1) The electrocutaneous stimulation-induced facial pain rodent model is a reproducible orofacial pain model in which depilated cheek area of rats are repeatedly subjected to electrical stimulation. Repeated electrical stimulation at low intensities produces craniofacial pain that mimics the behavioral characteristics of TN such as development of mechanical and thermal allodynia at cheeks despite no visible edema, swelling or excessive injury and tissue damage.
# (§2) Male wild type, Sprague-Dawley rats (Charles River Laboratories) born in-house at AfaSci Research Laboratory between May 24, 2020 to May 28, 2020. At approximately 3 months of age (approximately 350 g-450 g body weight) the rats were deemed suitable for the electrocutaneous stimulation-induced facial pain model. Prior to the experiment, the rats were maintained in group cages (3 rats per cage) in a controlled environment (temperature: 21.5±4.5° C./relative humidity: 35-55%) under a standard 12 h light/12 h dark lighting cycle (lights on at 06:00).
# (§3) The required quantity of the compounds are weighed and dissolved in 100% DMSO in a volume amounting to 5% of the total volume while placed on a stirrer. The weight of the compounds refers to the free base weights. Once the solution becomes clear/transparent, the remaining volume of the vehicle is added (30% HPBCD prepared in MQ water) to final concentrations of 0.1, 0.3, and 1 mg/ml for Compound 1 and 3 mg/ml of Carbamazepine. The solutions are kept on a stirrer before- and during administration of the compounds to the animals.
# (§4) The experimenter assessing the behavioral responses to drug administration is blinded to the drug treatment to the animals. Each treatment group is coded according the scheme below: • A. Vehicle (5% DMSO+30% HPBCD): 10 ml/kg • B. Compound 1: 1 mg/kg • C. Compound 1: 3 mg/kg • D. Compound 1: 10 mg/kg • F. Carbamazepine: 30 mg/kg
# (§5) Second baseline measurement was carried out similarly to day 1. […] For each animal, the average of the two baseline nociceptive measurements were calculated within each pain modality (mechanical, heat- and cold pain), and used as baseline (“Baseline” point on figures).
# Similarly, to day 1- and 2, all rats were subjected to acclimatization to test equipment and decapicone followed by measurements of ES-induced facial mechanical- heat- and cold allodynia (“0” time point on figures). […] Compound 1, vehicle and Carbamazepine was administered perorally in doses of 1, 3, and 10 mg/kg (Compound 1) or 30 mg/kg (carbamazepine) and drug effects on pain thresholds were evaluated 2- and 4 hours after drug administration by assessment of mechanical- (von Frey) and thermal hypersensitivity (heat- and cold stimulation respectively).
# (§6) Decrease in ES-induced pain threshold was evaluated 22 hours following electrical stimulation of the depilated left cheek area (between the eye and ear ridge, this is a receptive field of trigeminal nerve) of each rat and was manifested as facial withdrawal following application of Von Frey filaments for mechanical allodynia and a heat lamp and acetone test for thermal hyperalgesia and allodynia respectively. Baseline pain behaviors were measured similarly to ES-induced facial pain measurements, except that rats were not subjected to ES stimulation.
# Mechanical pain thresholds were assessed by measuring each rat's facial withdrawal threshold (g) in response to von Frey monofilaments (BioSeb). […]
# [2] = system: electrocutaneous stimulation-induced facial pain rodent model; assay: ES-induced facial pain model, hot thermal hyperalgesia (lamp test, selective C fiber testing), acute treatment; details: 30 mg/kg po, post 4 hours of dose, p<0.0001
# Excerpt: as §1, §2, §3, §4
# Second baseline measurement was carried out similarly to day 1. Immediately following the second baseline recording, each rat received 1 hr of electrocutaneous stimulation at cheek (0.4 mA intensity, 10 ms duration, 1 s inter-pulse interval). For each animal, the average of the two baseline nociceptive measurements were calculated within each pain modality (mechanical, heat- and cold pain), and used as baseline (“Baseline” point on figures).
# Similarly, to day 1- and 2, all rats were subjected to acclimatization to test equipment and decapicone followed by measurements of ES-induced facial mechanical- heat- and cold allodynia (“0” time point on figures). Based on the individual rat's mechanical- and thermal hypersensitivity, 40 rats were selected for drug testing. Compound 1, vehicle and Carbamazepine was administered perorally in doses of 1, 3, and 10 mg/kg (Compound 1) or 30 mg/kg (carbamazepine) and drug effects on pain thresholds were evaluated 2- and 4 hours after drug administration by assessment of mechanical- (von Frey) and thermal hypersensitivity (heat- and cold stimulation respectively).
# as §6
# Immediately following assessment of mechanical pain threshold, thermal (hot- and cold induced) pain was determined. […]
# [3] = system: electrocutaneous stimulation-induced facial pain rodent model; assay: ES-induced facial pain model, cold thermal allodynia (acetone test), acute treatment; details: 30 mg/kg po, 2 and 4 hrs post dose, p<0.001 and p<0.0001 vs vehicle
# Excerpt: as §1, §2
# The required quantity of the compounds are weighed and dissolved in 100% DMSO in a volume amounting to 5% of the total volume while placed on a stirrer. The weight of the compounds refers to the free base weights. […]
# as §5
# Similarly, to day 1- and 2, all rats were subjected to acclimatization to test equipment and decapicone followed by measurements of ES-induced facial mechanical- heat- and cold allodynia (“0” time point on figures). […] Compound 1, vehicle and Carbamazepine was administered perorally in doses of 1, 3, and 10 mg/kg (Compound 1) or 30 mg/kg (carbamazepine) and drug effects on pain thresholds were evaluated 2- and 4 hours after drug administration by assessment of mechanical- (von Frey) and thermal hypersensitivity (heat- and cold stimulation respectively). […]
structure (smiles),measurement,setting,value
"NC(=O)N1c2ccccc2C=Cc2ccccc21 [Carbamazepine, reference compound]","effect on mechanical allodynia (mechanical pain threshold, Von Frey) vs vehicle",[1],significant analgesic effects
same,effect on heat thermal hyperalgesia (facial withdrawal latency) vs vehicle,[2],full reversal of heat hyperalgesia
same,"effect on cold pain threshold (acetone test, facial withdrawal latency) vs vehicle",[3],significant enhancement of the cold pain threshold
